Patent US9573970B2, “4-{4-[(1E)-4-(2,9-diazaspiro[5.5]undec-2-yl)but-1-en-1-yl]-2-methylbenzyl}-5-(propan-2-yl)-1H-pyrazol-3-yl beta-D glucopyranoside acetate” (Eli Lilly and Company, priority 2013, dated 2017)

Columns and labels:
[1] = target: T1, human SGLT1 (Homo sapiens, UniProt P13866); assay: Sodium-dependent 14C-AMG uptake in CHO-K1 cells expressing human SGLT1; assay type: cell-based
T1 sequence (P13866 1-664): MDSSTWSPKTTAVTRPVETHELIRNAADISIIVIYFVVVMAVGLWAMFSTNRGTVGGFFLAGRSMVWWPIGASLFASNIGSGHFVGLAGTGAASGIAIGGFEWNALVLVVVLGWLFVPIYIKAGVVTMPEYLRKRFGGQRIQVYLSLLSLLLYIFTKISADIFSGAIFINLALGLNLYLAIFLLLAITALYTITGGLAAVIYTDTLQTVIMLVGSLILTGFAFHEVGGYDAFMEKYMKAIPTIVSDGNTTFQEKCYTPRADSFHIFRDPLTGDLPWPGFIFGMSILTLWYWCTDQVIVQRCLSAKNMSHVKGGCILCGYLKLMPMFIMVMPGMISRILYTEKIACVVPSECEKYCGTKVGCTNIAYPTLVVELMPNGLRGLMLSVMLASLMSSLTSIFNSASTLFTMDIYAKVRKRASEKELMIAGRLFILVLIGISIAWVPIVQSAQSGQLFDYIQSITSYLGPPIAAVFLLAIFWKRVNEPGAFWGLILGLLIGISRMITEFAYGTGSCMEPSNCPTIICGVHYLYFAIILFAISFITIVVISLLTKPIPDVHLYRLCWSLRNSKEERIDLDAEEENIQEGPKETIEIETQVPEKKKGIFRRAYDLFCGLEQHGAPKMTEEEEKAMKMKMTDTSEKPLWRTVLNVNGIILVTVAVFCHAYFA
From the text: (§1) The cDNA encoding human SGLT1 (slc5a1, NM_000343), human SGLT2 (slc5a2, NM_003041) and mouse SGLT1 (slc5a1, NM_019810.4) are purchased from Openbiosystems, Invitrogen and Openbiosystems, respectively. The cDNA is cloned into pcDNA3.1+ for mammalian expression and is stably transfected into Chinese hamster ovary (CHO)-K1 cells using standard mammalian transfection procedures. An SGLT-expressing sub-clone of each over-expressing cell line is selected based on resistance to neomycin (Geneticin, Invitrogen) and activity in the ^14C-α-methyl-D-glucopyranoside (^14C-AMG) uptake assay (see below). Stable SGLT-expressing cells are maintained using standard cell culture techniques.
(§2) The SGLT activity is measured as sodium-dependent ^14C-AMG uptake in the above cell lines described as follows. One hundred μL of culture medium containing 30,000 cells are seeded to each well of a 96-well BioCoat poly-D-lysine plate (Becton Dickson) and cultured at 37° C. overnight. The culture medium is aspirated and cells are washed twice with 200 μL of Reaction Buffer (140 mM NaCl, 2 mM KCl, 1 mM CaCl2, MgCl2, and 14 mM N-2-hydroethylpiperrazine-N′-2-ethanesulfonic acid (Hepes), pH 7.5). The excess buffer is tapped out onto paper towels. Thirty-five μL of Reaction Buffer are added to each well. […] After mixing, the scintillation signal in the plate is counted in a MicroBeta (PerkinElmer). […]

[2] = target: T2, human SGLT2 (Homo sapiens, UniProt P31639); assay: Sodium-dependent 14C-AMG uptake in CHO-K1 cells expressing human SGLT2; assay type: cell-based; settings: n = 10
T2 sequence (P31639 1-672): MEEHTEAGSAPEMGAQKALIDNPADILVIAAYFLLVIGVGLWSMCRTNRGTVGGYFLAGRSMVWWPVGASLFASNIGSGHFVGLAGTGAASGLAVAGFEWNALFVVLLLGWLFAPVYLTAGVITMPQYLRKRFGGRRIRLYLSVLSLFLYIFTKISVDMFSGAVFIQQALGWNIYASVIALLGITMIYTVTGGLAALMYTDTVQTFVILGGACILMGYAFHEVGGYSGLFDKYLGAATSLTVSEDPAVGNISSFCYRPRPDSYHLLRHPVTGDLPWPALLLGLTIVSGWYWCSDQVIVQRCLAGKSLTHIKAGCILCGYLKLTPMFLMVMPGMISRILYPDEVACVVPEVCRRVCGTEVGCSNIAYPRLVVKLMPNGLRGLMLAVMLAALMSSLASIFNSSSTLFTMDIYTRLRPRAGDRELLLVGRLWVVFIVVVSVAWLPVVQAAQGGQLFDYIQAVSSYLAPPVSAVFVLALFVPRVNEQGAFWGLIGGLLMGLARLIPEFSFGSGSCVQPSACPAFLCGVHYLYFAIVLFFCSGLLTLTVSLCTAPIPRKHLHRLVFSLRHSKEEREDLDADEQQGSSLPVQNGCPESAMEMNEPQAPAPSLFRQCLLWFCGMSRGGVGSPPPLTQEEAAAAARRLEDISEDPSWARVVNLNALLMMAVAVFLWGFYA
From the text: as §1, §2

IC50 ([1]; 14C-AMG uptake, CHO-K1 cells, n = 10): 0.026 ± 0.02 µM | IC50 [2]: 6.1 ± 1.2 µM
Structure (SMILES): Cc1cc(/C=C/CCN2CCCC3(CCNCC3)C2)ccc1Cc1c(O[C@@H]2O[C@H](CO)[C@@H](O)[C@H](O)[C@H]2O)n[nH]c1C(C)C [Example 1 (free base), 4-{4-[(1E)-4-(2,9-diazaspiro[5.5]undec-2-yl)but-1-en-1-yl]-2-methylbenzyl}-5-(propan-2-yl)-1H-pyrazol-3-yl beta-D-glucopyranoside]
Potency at SGLT1 relative to human SGLT2 ([1]; in vitro, from Table 2): more potent at human and mouse SGLT1 than at human SGLT2
